Earlier results as cited in US20210059959A1, “USE OF CANNABINOIDS IN THE TREATMENT OF MENTAL DISORDERS” (GW Pharma Limited, priority 2015, published 2021).

Tested on: positive or negative symptoms of schizophrenia
Details: placebo-controlled clinical trial; cited from earlier work

Cc1c(C(=O)NN2CCCCC2)nn(-c2ccc(Cl)cc2Cl)c1-c1ccc(Cl)cc1 [rimonabant]
Effect on positive or negative symptoms of schizophrenia: no effect
